The record followed here is article PMC8397291 (2021).

Experiment [1] has as its system c-MYC Pu24T (DNA, G4) TGAGGGTGGTGAGGGTGGGGAAGG
The experiment is described as follows: 1D 1H NMR titration, imino shifts. As to conditions: 10 mM potassium phosphate, 35 mM KCl; pH 7.4, 298 K; 90 μM DNA, up to 5 eq. 2a.

Experiment [2] concerns c-MYC Pu22 (DNA, G4) TGAGGGTGGGTAGGGTGGGTAA
The experiment is described as follows: fluorescence titration, 1:1 global fit (Bindfit). As to conditions: 100 mM KCl; 50 mM Tris pH 7.5, 25 °C, 0.6% DMSO; 1.5 μM compound.

Experiment [3] deals with c-KIT 2 (DNA, G4) CCCGGGCGGGCGCGAGGGAGGGGAGG
The experiment is described as follows: fluorescence titration, 1:1 global fit (Bindfit). As to conditions: 100 mM KCl; 50 mM Tris pH 7.5, 25 °C, 0.6% DMSO; 1.5 μM compound.

Experiment [4] deals with VAV-1 (DNA, G4) GGGCAGGGAGGGAACTGGG
The experiment is described as follows: fluorescence titration, 1:1 global fit (Bindfit). As to conditions: 100 mM KCl; 50 mM Tris pH 7.5, 25 °C, 0.6% DMSO; 1.5 μM compound.

The test system of experiment [5] is BCL-2 (DNA, G4) GGGCGCGGGAGGGAATTGGCGGGG
Briefly: fluorescence titration, 1:1 global fit (Bindfit). As to conditions: 100 mM KCl; 50 mM Tris pH 7.5, 25 °C, 0.6% DMSO; 1.5 μM compound.

Experiment [6] has as its system Tel-22 (DNA, G4) AGGGTTAGGGTTAGGGTTAGGG
Briefly: fluorescence titration, 1:1 global fit (Bindfit). As to conditions: 100 mM KCl; 50 mM Tris pH 7.5, 25 °C, 0.6% DMSO; 1.5 μM compound.

Experiment [7] relates to c-MYC sG4 (DNA, G4) GGGTGGGTAGGGTGGG
Briefly: fluorescence titration, 1:1 global fit (Bindfit). As to conditions: 100 mM KCl; 50 mM Tris pH 7.5, 25 °C, 0.6% DMSO; 1.5 μM compound.

Experiment [8] has as its system c-MYC Pu22 (DNA, G4) TGAGGGTGGGTAGGGTGGGTAA
The experiment is described as follows: fluorescence displacement of 2a. As to conditions: tracer 2a displaced.

The test system is the same in experiment [9]. The experiment is described as follows: UV-vis and fluorescence titration. As to conditions: 100 mM KCl; 50 mM Tris pH 7.5, 25 °C; 1.5-3.0 μM compound, up to 5.0 eq. DNA.
For experiment [10], the system named is Tel-22 (DNA, G4) AGGGTTAGGGTTAGGGTTAGGG
Briefly: UV-vis and fluorescence titration. As to conditions: 100 mM KCl; 50 mM Tris pH 7.5, 25 °C; 1.5-3.0 μM compound, up to 5.0 eq. DNA.

The subject of experiment [11] is TBA (DNA, G4) GGTTGGTGTGGTTGG
Briefly: UV-vis and fluorescence titration. As to conditions: 100 mM KCl; 50 mM Tris pH 7.5, 25 °C; 1.5-3.0 μM compound, up to 5.0 eq. DNA.

For orientation: Kd means the equilibrium constant for the complex coming apart. Regarding `CCN(CC)c1ccc2cc(C(=N)N)c(=O)oc2c1`, in [1], the binding result is listed as “yes”. Moreover, the dissociation constant Kd in [2] amounted to 13.0 µM; in experiment [3], 9.1 µM; in experiment [4] it was 15.0 µM; in [5], 14.6 µM; in experiment [6], 45.2 µM; in experiment [7], 12.6 µM.
Take `C[n+]1cc(NC(=O)c2ccc3ccc4ccc(C(=O)Nc5cc6ccccc6[n+](C)c5)nc4c3n2)cc2ccccc21`: the binding result in experiment [8] was “yes”.
In the case of `N=C(N)c1cc2cc3c4c(c2oc1=O)CCCN4CCC3`, the equilibrium dissociation constant (Kd) in [2] was found to be 0.3 µM; in experiment [3], 0.7 µM; in experiment [4], 0.3 µM; in experiment [5], 0.5 µM; in experiment [6], 3.8 µM.
For the molecule `N=C(N)c1cc2ccc(O)cc2oc1=O`, the binding result in experiment [9], in [10] and in [11] was “no” throughout.
